One compound from patent publication US10751304B2, “Topical and transdermal delivery of HIF-1 modulators to prevent and treat chronic wounds” (The Board of Trustees of the Leland Stanford Junior …, priority 2008, dated 2020) can be followed below.

Entries after “also recorded” stand apart in the source; their conditions may differ.

Series [1] concerns pressure ulcers on the dorsum of aged mice. Kind of series: Murine pressure (decubitus) ulcer model in aged mice. In kind it is in vivo. The note with it: n=6. The source says: (§1) Pressure ulcers on the dorsum of aged mice (19 month, NIA) and Diabetic (Db/Db) C57Bl/6 mice (n=6 per group) where created using two ceramic magnets (12 mm diameter and 5 mm thick, and average weight of 2.4 g) that apply 50 mm Hg pressure to the skin between them (Stadler et. al. J Invest Surg. 2004 July-August; 17(4):221-7). A single ischemia/reperfusion (I/R) cycle consists of placement of magnets (ischemia) for a designated time period followed by release (reperfusion). Three ischemia-reperfusion cycles were used in each animal to initiate decubitus ulcer formation (either in 3 h or 12 h cycles). Animals were housed individually, to prevent the accidental dislocation of the magnets and to prevent tampering with the resultant ulcer.
(§2) CD31 staining was performed on paraffin embedded 5-micron wound sections (1:50, Santa Cruz Biotechnology, Santa Cruz, Calif.) diluted in blocking goat serum overnight at 4° C. […] Sections were then mounted with Vectashield plus DAPI (Vector Laboratories, Burlingame, Calif.), and analyzed using a Zeiss Axioplan 2 light-fluorescent microscope (Carl Zeiss Vision, Germany) equipped with Zeiss AxioCam HR digital imaging software (Carl Zeiss Vision). […]
We evaluated the ability of DFO to prevent pressure ulcer formation, which has been associated with HIF-1α dysfunction and diabetes, using a previously described murine pressure ulcer model. […]

In the next series the test system is VEGF. Description: VEGF ELISA of harvested wounds. In kind it is in vivo, murine. The note with it: control 100 ng/ml. As to the method: ELISA. Total protein was isolated from harvested wounds by homogenizing tissue in RIPA buffer. VEGF and SDF-1 levels were measured using the Quantikine murine VEGF and SDF-1 ELISA kits (R&D Systems, Minneapolis, Minn.) according to manufacturer's instructions.
On the technique in general: An ELISA detects its analyte on a solid surface through an enzyme-linked reagent.

Another series concerns diabetic ulcers. Description: Murine pressure ulcer model, diabetic mice, transdermal patch. The series is classed as in vivo. Particulars: transdermal patch delivery; controls Day 45+.
Text: as §1
30 μm fresh frozen sections were washed with PBS and stained with 10 μM Dihydroethidium (DHE, invitrogen) at 37 C for 30 minutes. Slides were then washed with PBS, and Vectashield with DAPI was added.
Transdermal delivery of DFO reduces ROS accumulation and ulcer formation: We have completed studies examining the ability of our DFO patch to ameliorate diabetes-associated deficits in wound healing using our pressure ulcer model. This injury model causes increased levels of ROS, as assayed using dihydroethidium (DHE) fluorescent staining.

Series [2] can be described thus: DFO patch release and skin penetration (Example 4). In kind it is in vitro ADME.
Series [3] has as its system excisional wounds of diabetic (Db/Db) mice. Kind of series: Murine excisional wound healing model, diabetic (Db/Db) mice. In kind it is in vivo. The note with it: topical, delivery control day 23.
Text: Young (8 weeks, Jackson Laboratories) aged (18-24 months, National Institute of Aging aged rodent colony), and Diabetic (Db/Db) C57/BL6 mice (n=4 per group) underwent excisional wound biopsies in accordance with the Stanford University Institutional Animal Care and Use Committees. Wounds were made as previously described. Briefly, two 6-mm circular, full-thickness wounds were made on the dorsum of mice. A 12 mm diameter, 0.5 mm thick donut shaped silicone ring (Grace Bio-Labs, Bend, Oreg.) was then placed around the wounds preventing premature skin contracture. […] Wounds were dressed with a sterile occlusive dressing that was changed daily, monitored, and photographed every other day until closure. […]
as §2
Transdermal delivery of DFO accelerates murine wound healing: Given the optimal release properties and structural parameters determined above, we sought to evaluate the ability of our DFO delivery device to improve gross wound healing in diabetic mice. […]

As for `CC(=O)N(O)CCCCCNC(=O)CCC(=O)N(O)CCCCCNC(=O)CCC(=O)N(O)CCCCCN` [deferoxamine], the ulcer closure date in series [1] (controls day 19) was found to be 17 days. The compound further yielded a Ulcer incidence in series [1] (pressure ulcer model, controls 100%) of 33%. For the same compound, the “VEGF via ELISA” value in the series with VEGF amounted to 200 ng/mL. In the series on diabetic ulcers, the diabetic ulcer closure was 30 days. Further, in series [2] (reverse micelles destabilized using 5% DMSO, listed as DFO), the “DFO uptake into the skin / DFO delivery” value is listed as “inhibit DFO delivery; also recorded: significantly reduces the DFO uptake into the skin”. Also, the drug penetration entry in series [2] (without an occlusive backing) is on record as “very minimal drug penetration”. The “reduction in skin penetration of DFO” value in series [2] (without backing membrane) stood at 10 fold. Moreover, the wound closure in series [3] came out at 13 days.
